Key:
[1] = target: T1, human calcitonin-2 receptor (hCT2R) (Homo sapiens, UniProt P30988); experiment: HCT2R CRE-luc reporter assay; format: cell-based; details: agonist activity; CHO-6CRE-luciferase cells co-transfected with hCT2R
T1 construct: expressed in transfected cells; host or cells: Chinese hamster ovary (CHO) cells co-transfected with a 6CRE-luciferase reporter; receptor cDNA cloned from the MCF7 cell line
T1 sequence (P30988 25-474): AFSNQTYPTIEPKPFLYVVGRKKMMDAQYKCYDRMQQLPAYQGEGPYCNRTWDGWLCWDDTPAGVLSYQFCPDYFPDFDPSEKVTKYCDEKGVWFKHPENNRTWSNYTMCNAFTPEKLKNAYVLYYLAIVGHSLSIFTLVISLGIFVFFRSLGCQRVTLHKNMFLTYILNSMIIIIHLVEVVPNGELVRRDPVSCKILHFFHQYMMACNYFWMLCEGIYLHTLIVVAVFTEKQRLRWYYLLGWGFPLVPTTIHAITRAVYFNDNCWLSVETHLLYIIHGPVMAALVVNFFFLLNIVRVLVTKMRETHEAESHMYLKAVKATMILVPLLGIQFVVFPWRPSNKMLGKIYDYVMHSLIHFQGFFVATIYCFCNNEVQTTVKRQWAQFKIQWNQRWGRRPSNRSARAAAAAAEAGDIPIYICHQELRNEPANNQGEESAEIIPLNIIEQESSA
Description: The compounds of the present invention elicit important and measurable pharmacological responses. As is to be expected, the efficacy of any compound will vary depending upon the particular assay and the particular compound tested.
All recombinant cell line human calcitonin receptor assays were carried out with the human receptor corresponding to GeneBank Accession Number X69920, [See: Molecular Pharmacology 46 (2):246–255, 1994, Cloning and characterization of an abundant subtype of the human calcitonin receptor] cloned from the MCF7 cell line (American Type Tissue Collection, Manassas, Va., USA, Catalog # HTB-22). Human calcitonin receptor (hCT2R) was cloned as a HindIII fragment into plasmid BS SKII. Chinese hamster ovary cells were co-transfected with a 6CRE-luciferase reporter system and hCTR2. HEK cells were transfected with hCTR2.
CHO-6CRE-luciferase cells with or without co-expressed hCTR2 were grown in suspension in commercially available cell culture medium supplemented with 2 mM L-glutamine and 5% fetal bovine serum (FBS). Sixteen hours before each assay, cells were collected and resuspended at 1,000,000 cells/ml in media without FBS. Cells were cultured in spinner flasks at 37° C. in an atmosphere of 5% CO2. At the time of the assay, cells were pelleted by centrifugation and resuspended in media without FBS at a concentration of 250,000 cells/ml. The cell suspension was pipetted into black 96-well microtiter plates (25,000 cells/well) containing test compounds. After a four-hour incubation at 37° C., media was aspirated, followed by addition of 50 microliters of LucLite and PBS (1:1) containing 1 mM CaCl2 and 1 mM MgCl2. The plates were sealed and incubated for 20 minutes in the dark. Luminescent responses were measured using a Packard TopCount.
Structure activity studies were performed on CHO-6CRE-luciferase cells with or without co-transfected hCT2R. Forty-eight hours before each assay, cells were removed with trypsin and plated in 96-well microtiter plates at a concentration of 25–100,000 cells/well. Sixteen hours before each assay, FBS-containing media was removed and replaced with media without FBS. Compounds were added and incubated for four hours at 37° C. After incubation, media was aspirated and 50 microliters of LucLite in PBS (1:1) containing 1 mM CaCl2 and 1 mM MgCl2 were added to each well. Plates were sealed and incubated for 20 minutes in the dark before quantification of luminescence on a Packard TopCount.
Concentration-response curves were calculated and potencies were reported as the concentration of compounds producing half-maximal responses (EC50) or the negative log of the concentration of compounds producing half-maximal responses (pEC50).

[2] = tested on: Thyroid-parathyroidectomized (TPTX) rats; experiment: Rat TPTX assay in vivo (PTH-induced elevation of serum calcium); details: 16 units/kg SC, TPTX rats
Excerpt: Thyroid-parathyroidectomized (TPTX) rats were used to determine the effects of compounds on PTH-induced elevation of serum calcium in vivo. The thyroid and parathyroid glands of male CD rats were removed under anesthesia and subcutaneous pumps containing human parathyroid hormone (hPTH 1–34) were implanted two to five days after TPTX. […] PTH was delivered at a rate of 30 micrograms/kg/hour. PTH causes significant elevations of serum calcium in TPTX rats given no other treatments. Rats were treated with vehicle, test compounds at various doses or calcitonin 16 units/kg SC. […] Serurn calcium was measured at baseline and every two hours up to six hours. Averaged group responses at each time point were compared using Analysis of Variance (ANOVA).

Compound | EC50 [1] [nM] | suppression of PTH-induced hypercalcemia [2]
CCOC(=O)c1c(CCc2ccc(F)cc2)cc2c(c1-c1ccc(C(=O)NCc3ccco3)cc1)C(=O)N1CCC[C@@H]21 [Example 50, Ethyl (9bS)-8-[2-(4-flurophenyl)ethyl]-6-(4-{[(2-furylmethyl)amino]carbonyl}phenyl)-5oxo-2,3,5,9b-tetrahydro-1H-pyrrolo[2,1-α]isoindole-7-carboxylate] | ≥ 1000 | 
CCOC(=O)c1c(Cc2ccsc2)nc2c(c1-c1ccc(C(=O)NCc3ccco3)cc1)C(=O)N1CCCC21 [Example 51, Ethyl (9aS)-4-(4-{[(2-furylmethyl)amino]carbonyl}phenyl)-5-oxo-2-(3-thienylmethyl)-7,8,9,9a-tetrahydro-5H-pyrido[2,3-α]pyrrolizine-3-carboxylate] | 100 to 1000 | 
CCOC(=O)c1c(CCc2ccc(F)cc2)nc2c(c1-c1ccc(C(=O)N[C@@H](C)c3ccncc3)c(F)c1)C(=O)N1CCC[C@@H]21 [Example 52, Ethyl (9aS)-2-[2-(4-fluorophenyl)ethyl]-4-[3-fluoro-4-({[(1S)-1-(4-pyridinyl)ethyl]amino}carbonyl)phenyl]-5-oxo-7,8,9,9a-tetrahydro-5H-pyrido[2,3-α]pyrrolizine-3-carboxylate] | 10 to 100 | 
CCOC(=O)c1c(CCc2ccc(F)cc2)nc2c(c1-c1ccc(C(=O)N[C@@H]3CCc4ccccc43)cc1[N+](=O)[O-])C(=O)N1CCC[C@@H]21 [Example 53, Ethyl (9aS)-4-(4-{[(1R)-2,3-dihydro-1H-inden-1-ylamino]carbonyl}-2-nitrophenyl)-2-[2-(4-fluorophenyl)ethyl]-5-oxo-7,8,9,9a-tetrahydro-5H-pyrido[2,3-α]pyrrolizine-3-carboxylate] | 10 to 100 | 
CCOC(=O)c1c(Cc2ccc(F)cc2)nc2c(c1-c1cc(C(=O)NCCc3cccs3)cc(C(F)(F)F)c1)C(=O)N1CCC[C@@H]21 [Example 54, Ethyl (9aS)-2-(4-fluorobenzyl)-5-oxo-4-[3-({[2-(2-thienyl)ethyl]amino}carbonyl)-5-(trifluoromethyl)phenyl]-7,8,9,9a-tetrahydro-5H-pyrido[2,3-α]pyrrolizine-3-carboxylate] | ≥ 1000 | 
CCOC(=O)c1c(Cc2ccc(F)cc2)nc2c(c1-c1ccc(C(=O)NN3CCc4ccccc43)cc1)C(=O)N1CCC[C@@H]21 [Example 55, Ethyl (9aS)-4-{4-[(2,3-dihydro-1H-indol-1-ylamino)carbonyl]phenyl}-2-(4-fluorobenzyl)-5-oxo-7,8,9,9a-tetrahydro-5H-pyrido[2,3-α]pyrrolizine-3-carboxylate] | 10 to 100 | 
CCOC(=O)c1c(CCc2ccc(F)cc2)nc2c(c1-c1cc(Br)cs1)C(=O)N1CCC[C@@H]21 [Example 56, Ethyl (9aS)-4-(4-bromo-2-thienyl)-2-[2-(4-fluorophenyl)ethyl]-5-oxo-7,8,9,9a-tetrahydro-5H-pyrido[2,3-α]pyrrolizine-3-carboxylate] | 100 to 1000 | 
O=C(N[C@@H]1CCc2ccccc21)c1ccc2c(c1)[nH]c(=O)c1c(Cc3ccc(F)cc3)nc3c(c12)C(=O)N1CCC[C@@H]31 [Example 58, (8bS)-N-[(1R)-2,3-dihydro-1H-inden-1-yl]-7-(4-fluorobenzyl)-6,13-dioxo-5,8b,9,10,11,13-hexahydro-6H-benzo[c]pyrroizino[2,1-f][2,7]naphthyridine-3-carboxamide] | 100 to 1000 | 
O=C(N[C@@H]1CCc2ccccc21)c1ccc2c(c1)[nH]c(=O)c1c(CCc3ccc(F)cc3)nc3c(c12)C(=O)N1CCC[C@@H]31 [Example 59, (8bS)-N-[(1R)-2,3-dihydro-1H-inden-1-yl]-7-[2-(4-fluorophenyl)ethyl]-6,13-dioxo-5,8b,9,10,11,13-hexahydro-6H-benzo[c]pyrrolizino[2,1-f][2,7]naphthyridine-3-carboxamide] | ≤ 10 | 
CCOC(=O)C1=C(Cc2ccc(F)cc2)Nc2c(c(=O)n3n2CCC3)C1c1ccc(C(=O)N[C@@H]2CCc3ccccc32)cc1 (stereo partly drawn) [Example 60, Ethyl 4-(4-{[(1R)-2,3-dihydro-1H-inden-1-ylamino]carbonyl}phenyl)-2-(4-fluorobenzyl)-5-oxo-1,5,8,9-tetrahydro-4H,7H-pyrazolo[1′,2′:1,2]pyrazolo[3,4-b]pyridine-3-carboxylate] | 100 to 1000 | 
CCOC(=O)C1=C(CCc2ccc(C(F)(F)F)cc2)Nc2c(c(=O)n3n2CCC3)C1c1ccc(C(=O)N[C@@H]2CCc3ccccc32)cc1 (stereo partly drawn) [Example 61, Ethyl 4-(4-{[(1R)-2,3-dihydro-1H-inden-1-ylamino]carbonyl}phenyl)-5-oxo-2-{2-[4-(trifluoromethyl)phenyl]ethyl}-1,5,8,9-tetrahydro-4H,7H-pyrazolo[1′,2′:1,2]pyrazolo[3,4-b]pyridine-3-carboxylate] | 10 to 100 | 
Ethyl (9aS)-4-(4-{[(2-furylmethyl)amino]carbonyl}phenyl)-5-oxo-2-[2-(3-pyridinyl)ethyl]-7,8,9,9a-tetrahydro-5H-pyrido[2,3-α]pyrrolizine-3-carboxylate [Example 33] | 10 to 100 | 
Ethyl (9aS)-4-(4-{[(2-furylmethyl)amino]carbonyl}phenyl)-5-oxo-2-{2-[4-(trifluoromethyl)phenyl]ethyl}-7,8,9,9a-tetrahydro-5H-pyrido[2,3-α]pyrrolizine-3-carboxylate-N-oxide [Example 38] | 100 to 1000 | 
Ethyl (9αS)-4-{4-[(benzylamino)carbonyl]phenyl}-5-oxo-2-{2-[4-(trifluoro-methyl)phenyl]ethyl}-9,9a-dihydro-5H-[1,3]oxazolo[3′,4′:1,2]pyrrolo[3,4-b]pyridine-3-carboxylate [Example 36] | 10 to 100 | 
Ethyl(9aS)-4-[3-({[2-(2-furyl)ethyl]amino}carbonyl)phenyl]-5-oxo-2-{2-[4-(trifluoromethyl)phenyl]ethyl}-7,8,9,9a-tetrahydro-5H-pyrido[2,3-a]pyrrolizine-3-carboxylate [Example 13] | ≥ 1000 | 
calcitonin [reference compound] |  | maximal suppression

Source: patent publication US7189851B2, “Condensed heterocyclic compounds as calcitonin agonists” (SmithKline Beecham Corporation, priority 2002, dated 2007)
